Legend:
[1] = General shelf-life extension of foods (spoilage criteria of Example 9); settings: for Effectiveness for controlling one or more spoilage criteria: variety of foods
Protocol: All studies were conducted at a room temperature of about 25° C. To determine the effectiveness of a shelf-life extender, a control sample which was untreated with any shelf-life extenders, was tested identical to the test samples. […] All studies in those Examples of Tables 1-6 were conducted in closed plastic or glass containers. Containers, such as plastic containers, without or with lids having holes can be used if it is advantageous to let excess moisture escape or to prevent condensation of moisture released by some produce.
Food exposed to preservatives or by a sachet was placed in typically polystyrene or acrylic containers depending upon the size and number of food items. Glass jars and bottles were also used. The containers were snap-closed or with a lid. The containers were purchased mainly from Amazon or Webstaurant.com store. When needed, plastic containers with holes or without lids were used.
For controlled exposure and a constant supply of a preservative to foods, sachets containing one or more drops of preservatives were used. Sachets were made by placing an appropriate amount of a preservative in a plastic bag containing a piece of paper and heat sealing the bag. The sachet bag materials used were Tyvek® for solid preservative, polyethylene, polyester and high barrier multilayer films were used for liquid preservatives. These bags were sealed with a heat sealer. The sachet was typically applied on one side of the container containing food.
A piece of paper napkin was taped inside a 100 microns thick polyethylene or polyester Ziploc bag. The size of the bag varied from ˜20 cm×30 cm to ˜60 cm×90 cm depended on the sample with sandwich bags up to gallon bags being exemplary. The paper napkin was wetted with 0.1-0.5 ml of a preservative or a mixture of preservatives. A tray of aluminum, stainless steel or glass containing the foods was placed inside the plastic (polyethylene, polyester and multilayer-laminated) bag and almost closed by locking the Ziploc. Air was blown with an air blower from the unclosed end until the bag was fully blown and then quickly closed tightly by locking the remaining Ziploc. If a preservative was a sublimable solid, it was placed in a petri dish and then placed inside the bag in the tray before blowing air. The exposure time was varied from five minutes to a day depending upon the food. […] The assembly was shaken periodically. After the predetermined time, the tray containing produce was removed from the bag, allowed to de-gas for 10-30 minutes in air and the produce was then placed in an appropriately sized container. Glass and stainless steel containers with lids were also often used.
A solution of one or more preservatives was prepared in a large (e.g., 2-10 liter) glass beaker or a jar. A sack containing the food was prepared by placing the food in a plastic mesh bag. The sack was placed in the solution of the preservative. A smaller glass beaker containing proper amount of water was place over the package to keep the sack soaked in the solution of the preservative during the treatment. The solution was stirred either with a plastic spatula or with a magnet over a magnetic stirrer. After treatment, the mesh sack was removed, the produce was washed in a tray with running water, strained and air dried at 30° C. in an air blowing oven for about 5-10 minutes, while shaking the tray or turning the food periodically followed by placing the sample in an appropriate container.
The food was placed in mesh trays and sprayed with an aqueous solution (1-10%) of a preservative while shaking the tray or turning the food. The solution was allowed to drain from the tray and the food was air dried in an air blowing oven at 30° C. for about 5-10 minutes, while shaking the tray or turning food periodically followed by placing the sample in an appropriate container.

fungus = experiment: Fungus growth on treated foods stored in closed containers at room temperature; settings: for Spoilage Time - Sample: Fungus;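 as to Effectiveness on ginger: compared with untreated control ginger in closed containers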
From the text: (§1) Most of the foods changed color or texture.
Glass jars and bottles were also used. The containers were snap-closed or with a lid.
(§2) These bags were sealed with a heat sealer.
(§3) The assembly was shaken periodically.

[2] = Curdling / cream / solidification of milk; settings: for Curdling of milk: pasteurized whole and fat-free milk;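 as to Curdling of milk: compared with untreated control milk in closed containers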;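 as to Curdling: compared with untreated control milk in closed containers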
From the text: as §1

[3] = tested on: grains, legumes, potatoes, garlic; experiment: Germination / sprouting of grains, legumes and tubers; settings: potatoes
From the text: as §2, §3

CC12CCC(CC1=O)C2(C)C (racemic) [(±)-camphor]
Shelf-life of flowery vegetables [1]: extended shelf-life

COc1ccccc1B(O)O [2-methoxyphenylboronic acid]
Effectiveness in extending freshness of cold press fresh juices (fungus): effective | Curdling ([2]; raw cow milk and raw goat milk): delayed curdling

Cc1ccc2cccc(O)c2n1 [2-methyl-8-quinolinol]
Effectiveness for controlling one or more spoilage criteria [1]: effective to a greater or lesser extent

Cc1ccccc1B(O)O [2-methylphenylboronic acid]
Curdling of milk [2]: delayed curdling

CC1CCCCC1=O (centres unmarked) [2MC, 2-Methylcyclohexanone]
Fungus growth (fungus; strawberries, raspberries, blackberries and lychee): either prevented or significantly delayed | Shelf-life of flowery vegetables [1]: extended shelf-life | Effectiveness for controlling one or more spoilage criteria [1]: effective to a greater or lesser extent

Cc1cc(C)cc(B(O)O)c1 [3,5-dimethylphenylboronic acid]
Effectiveness in extending freshness of cold press fresh juices (fungus): effective | Curdling of milk [2]: delayed curdling | Curdling ([2]; raw cow milk and raw goat milk): delayed curdling

OB(O)c1cccc(Cl)c1 [3-chlorophenylboronic acid, 3-Chlorophenylboronic acid]
Effectiveness in extending freshness of cold press fresh juices (fungus): effective | Shelf-life of raw milk yogurt (fungus; raw milk yogurt): extended shelf-life | Curdling ([2]; Example 135, fat-free milk): either prevented or significantly delayed | Spoilage Time - Sample (Solid) ([2]; Pasteurized fat free milk, 0.05 g, control 3 days): 14 days | Curdling of milk [2]: delayed curdling | Curdling ([2]; raw cow milk and raw goat milk): delayed curdling

COc1cccc(B(O)O)c1 [3-methoxyphenylboronic acid, 3-Methoxyphenylboronic acid]
Fungus growth (fungus; 96 h): > 27 days | Spoilage Time - Sample (Fungus) (fungus; Orange juice with peel, 0.02 g, control 4 days): 27 days | Curdling of milk [2]: delayed curdling | Curdling ([2]; raw cow milk and raw goat milk): delayed curdling

COC(=O)c1ccc(B(O)O)cc1 [4-(methoxycarbonyl)phenylboronic acid]
Effectiveness in extending freshness of cold press fresh juices (fungus): effective | Curdling of milk [2]: delayed curdling | Curdling ([2]; raw cow milk and raw goat milk): delayed curdling

OB(O)c1ccc(-c2ccccc2)cc1 [4-biphenylboronic acid]
Effectiveness in extending freshness of cold press fresh juices (fungus): effective | Curdling of milk [2]: delayed curdling | Curdling ([2]; raw cow milk and raw goat milk): delayed curdling

OB(O)c1ccc(Br)cc1 [4-bromophenylboronic acid, 4-Bromophenylboronic acid]
Fungus growth (fungus; Example 134, raw milk yogurt, preservative added, control 3 days): > 5 days | Spoilage Time - Sample (Fungus) (fungus; Raw milk yogurt, 0.10 g, control 3 days): 5 days | Effectiveness in extending freshness of cold press fresh juices (fungus): effective | Curdling of milk [2]: delayed curdling | Curdling ([2]; raw cow milk and raw goat milk): delayed curdling

CC(=O)CC(C)(C)O [4-hydroxy-4-methyl-2-pentanone]
Effectiveness for controlling one or more spoilage criteria [1]: effective to a greater or lesser extent

CC1CCC(=O)CC1 [4-methylcyclohexanone]
Shelf-life of flowery vegetables [1]: extended shelf-life | Effectiveness for controlling one or more spoilage criteria [1]: effective to a greater or lesser extent

CC(C)(C)c1ccc(B(O)O)cc1 [4-tert-butylphenylboronic acid, 4-tert-Butylphenylboronic acid]
Shelf-life of tomato juice (fungus; Example 133, fresh cold pressed tomato juice): improve shelf-life | Spoilage Time - Sample (Fungus) (fungus; Tomato juice, 0.20 g, control 4 days): 27 days | Shelf-life of raw milk yogurt (fungus; raw milk yogurt): extended shelf-life | Curdling of milk [2]: delayed curdling | Curdling ([2]; raw cow milk and raw goat milk): delayed curdling

N.NC(=O)O [ACB, Ammonium carbaminate]
Spoilage Time - Sample (Fungus) (fungus; Fresh, unshelled peanuts, Sachet, control 5 days): 45 days

O=C1CCCCCC1 [CH, Cycloheptanone]
Spoilage Time - Sample (fungus; Example 91, Blueberry, Sachet, control 5 days): 67 days | Shelf-life of flowery vegetables [1]: extended shelf-life | Effectiveness for controlling one or more spoilage criteria [1]: effective to a greater or lesser extent

O=C1CCCC1 [CP, Cyclopentanone]
Spoilage Time - Sample (fungus; Example 115, Strawberry, Sachet, control 2 days): 5 days | Shelf-life of flowery vegetables [1]: extended shelf-life | Effectiveness for controlling one or more spoilage criteria [1]: effective to a greater or lesser extent

CCN=C=S [EI, ethyl isothiocyanate]
Effectiveness at extending the shelf-life of potatoes [3]: effective | Spoilage Time - Sample (fungus; Example 85, Tomato juice, 0.02 g, control 4 days): 27 days | Spoilage Time - Sample (fungus; Example 85, Tomato juice, 0.02 g, control 4 days, listed as Ethyl isothiocyanate): improve shelf-life | Effectiveness on ginger (fungus; ginger, pre-exposure and sachet method): found effective | Shelf-life of raw milk yogurt (fungus; raw milk yogurt): extended shelf-life | Spoilage Time - Sample ([2]; Example 84, Cream, Raw cow milk, 0.07 g, control 3 days): 24 days | Spoilage Time - Sample ([2]; Example 86, Solid, Pasteurized whole milk, 0.05 g, control 3 days): 14 days | Spoilage Time - Sample ([2]; Example 86, Solid, Pasteurized whole milk, 0.05 g, control 3 days, listed as ethyl isothiocyanate): either prevented or significantly delayed

CC1=CCCC1 [MCP, 1-Methylcyclopentene]
Shelf-life of flowery vegetables [1]: extended shelf-life | Shelf-life of shelled and unshelled peanuts ([1]; peanuts): extended | Effectiveness for controlling one or more spoilage criteria [1]: effective to a greater or lesser extent

S=C=Nc1ccccc1 [PI, phenyl isothiocyanate]
Effectiveness at extending the shelf-life of potatoes [3]: effective | Spoilage Time - Sample (fungus; Example 87, White pearl onions, Sachet, 100% relative humidity, control 8 days): 48 days | Spoilage Time - Sample (fungus; Example 88, Yellow pearl onions, Sachet, 100% relative humidity, control 24 days): 48 days | Effectiveness in extending freshness of cold press fresh juices (fungus): effective | Curdling ([2]; raw cow milk and raw goat milk): delayed curdling

N.N.N.O=P(O)(O)O [ammonium phosphate]
Effectiveness at extending the shelf-life of potatoes [3]: effective

c1ccc(COCc2ccccc2)cc1 [benzyl ether, Benzyl Ether]
Fungus growth (fungus; Example 146, ginger, pre-exposed to vapor, control 12 days): > 37 days | Spoilage Time - Sample (Fungus) (fungus; Ginger, 1 hr P-E, control 12 days): 37 days | Effectiveness for controlling one or more spoilage criteria [1]: effective to a greater or lesser extent

S=C=NCc1ccccc1 [benzyl isothiocyanate]
Curdling ([2]; raw cow milk and raw goat milk): delayed curdling

OB(O)O [boric acid]
Curdling of milk [2]: delayed curdling

CCCCN=C=S [butyl isothiocyanate]
Effectiveness in extending freshness of cold press fresh juices (fungus): effective | Curdling ([2]; raw cow milk and raw goat milk): delayed curdling

CCCCB(O)O [butylboronic acid]
Effectiveness in extending freshness of cold press fresh juices (fungus): effective | Shelf-life of raw milk yogurt (fungus; raw milk yogurt): extended shelf-life | Curdling of milk [2]: delayed curdling | Curdling ([2]; raw cow milk and raw goat milk): delayed curdling

O=c1ccc2ccccc2o1 [coumarin]
Effectiveness for controlling one or more spoilage criteria [1]: effective to a greater or lesser extent

COC(=O)CC(=O)OC [dimethyl malonate]
Effectiveness for controlling one or more spoilage criteria [1]: effective to a greater or lesser extent

S [hydrogen sulfide, Hydrogen sulfide]
Fungus growth (fungus; Example 159, snow peas, Himalayan salt sachet, control 6 days): > 11 days | Spoilage Time - Sample (Fungus) (fungus; Snow peas, Sachet, control 6 days (Example 159)): 11 days | Spoilage Time - Sample (Fungus) (fungus; Snow peas, Sachet, control 11 days (Example 160)): 15 days

COC(=O)C1CCCC1=O (centres unmarked) [methyl cyclopentanone-2-carboxylate]
Effectiveness for controlling one or more spoilage criteria [1]: effective to a greater or lesser extent

Cc1ccc(N=C=S)cc1 [p-tolyl isothiocyanate]
Curdling ([2]; raw cow milk and raw goat milk): delayed curdling

Oc1cccc(O)c1 [resorcinol]
Effectiveness for controlling one or more spoilage criteria [1]: effective to a greater or lesser extent
